Results: ChEMBL document CHEMBL6182833, “Design, synthesis and antiviral evaluation of triazole-linked 7-hydroxycoumarin-monoterpene conjugates as inhibitors of RSV replication” (RSC Med Chem, 2025)
pEC50, pIC50: −log10 of the molar value. The source made the active and inactive calls. The rule behind the calls is not given here.

Legend:
[1] = Selectivity index, ratio of CC50 for human HEp-2 cells to IC50 for Respiratory syncytial virus type A infected in human HEp-2 cells; assay type: cell-based; settings: read-out: Ratio CC50/IC50
Human orthopneumovirus [2] = assay: Antiviral activity against Respiratory syncytial virus type B infected in human HEp-2 cells assessed as inhibition of viral replication preincubated with cells followed by viral infection for 1 hr followed by virus washout and further incubated with compound for 6 days by ELISA method; assay type: functional, organism-based; settings: for pIC50: read-out: IC50; for IC50: read-out: pIC50 (converted)
Human orthopneumovirus [3] = assay: Antiviral activity against Respiratory syncytial virus type A infected in human HEp-2 cells assessed as inhibition of viral replication preincubated with cells followed by viral infection for 1 hr followed by virus washout and further incubated with compound for 6 days by ELISA method; assay type: functional, organism-based; settings: for pIC50: read-out: IC50; for IC50: read-out: pIC50 (converted)
[4] = Selectivity index, ratio of CC50 for human HEp-2 cells to IC50 for Respiratory syncytial virus type B infected in human HEp-2 cells; assay type: cell-based; settings: read-out: Ratio CC50/IC50
HEp-2 = assay: Cytotoxicity against human HEp-2 cells assessed as cell growth inhibition measured after 24 hrs by MTT assay; assay type: functional
Human orthopneumovirus [5] = assay: Antiviral activity against Respiratory syncytial virus type A infected in human HEp-2 cells assessed as inhibition of viral replication preincubated with cells and simultaneously with virus and measured after 25 hrs by ELISA method; assay type: functional, organism-based
Human orthopneumovirus [6] = assay: Antiviral activity against Respiratory syncytial virus type A infected in human HEp-2 cells assessed as inhibition of viral replication preincubated with cells followed by compound washout followed by viral infection and measured after 25 hrs by ELISA method; assay type: functional, organism-based

CC1(C)[C@@H]2CC=C(Cn3cc(COc4ccc5c6c(c(=O)oc5c4)CCC6)nn3)[C@H]1C2
selectivity ratio [1]: 7.6
pIC50 (Human orthopneumovirus [2]): 5.14
pIC50 (Human orthopneumovirus [3]): 5.16
selectivity ratio [4]: 7.3
CC50 (HEp-2): 52.7 µM

Cc1cc(=O)oc2cc(OCC3=CC[C@H]4C[C@@H]3C4(C)C)ccc12
selectivity ratio [1]: 27.4
pIC50 (Human orthopneumovirus [2]): 3.62
pIC50 (Human orthopneumovirus [3]): 4.54
selectivity ratio [4]: 3.3
CC50 (HEp-2): 796 µM

Cc1cc(=O)oc2cc(OCc3cn(CCC(C)CCCC(C)C)nn3)ccc12 (centres undefined)
selectivity ratio [1]: 3.8
pIC50 (Human orthopneumovirus [2]): 5.41
IC50 (Human orthopneumovirus [2]): 3.89 µM
pIC50 (Human orthopneumovirus [3]): 5.37
IC50 (Human orthopneumovirus [3]): 4.27 µM
selectivity ratio [4]: 4.1
CC50 (HEp-2): 16.1 µM

NC(=O)c1ncn([C@@H]2O[C@H](CO)[C@@H](O)[C@H]2O)n1 [RIBAVIRIN]
pIC50 (Human orthopneumovirus [2]): 4.26
pIC50 (Human orthopneumovirus [3]): 4.51
CC50 (HEp-2): > 4100 µM

CC1(C)[C@H]2CC=C(Cn3cc(COc4ccc5c6c(c(=O)oc5c4)CCC6)nn3)[C@@H]1C2
selectivity ratio [1]: 0.4
pIC50 (Human orthopneumovirus [2]): 3.59
pIC50 (Human orthopneumovirus [3]): 3.20
selectivity ratio [4]: 1.1
CC50 (HEp-2): 278 µM

CC(C)CCCC(C)CCn1cc(COc2ccc3c(-c4ccccc4)cc(=O)oc3c2)nn1 (centres undefined)
selectivity ratio [1]: 3.5
pIC50 (Human orthopneumovirus [2]): 5.28
IC50 (Human orthopneumovirus [2]): 0.229 µM
pIC50 (Human orthopneumovirus [3]): 5.39
IC50 (Human orthopneumovirus [3]): 1.66 µM
selectivity ratio [4]: 2.8
CC50 (HEp-2): 14.6 µM

CC1(C)[C@H]2CC=C(Cn3cc(COc4ccc5c(-c6ccccc6)cc(=O)oc5c4)nn3)[C@@H]1C2
selectivity ratio [1]: > 88
pIC50 (Human orthopneumovirus [2]): 5.80
pIC50 (Human orthopneumovirus [3]): > 6.70
selectivity ratio [4]: 8.5
CC50 (HEp-2): 13.7 µM

CC(C)CCCC(C)CCn1cc(COc2ccc3c4c(c(=O)oc3c2)CCC4)nn1 (centres undefined)
selectivity ratio [1]: 160
pIC50 (Human orthopneumovirus [2]): 6.64
IC50 (Human orthopneumovirus [2]): 5.25 µM
pIC50 (Human orthopneumovirus [3]): 5.77
IC50 (Human orthopneumovirus [3]): 4.07 µM
selectivity ratio [4]: 1150
Activity (Human orthopneumovirus [5]): Weak_effect
Activity (Human orthopneumovirus [6]): Weak_effect
CC50 (HEp-2): 264 µM

CC1(C)[C@@H]2CC=C(Cn3cc(COc4ccc5c6c(c(=O)oc5c4)CCCC6)nn3)[C@H]1C2
selectivity ratio [1]: 6.3
pIC50 (Human orthopneumovirus [2]): 5.46
pIC50 (Human orthopneumovirus [3]): 5.39
IC50 (Human orthopneumovirus [3]): 4.07 µM
selectivity ratio [4]: 7.2
CC50 (HEp-2): 25.5 µM

CC1(C)[C@@H]2CC=C(Cn3cc(COc4ccc5c(-c6ccccc6)cc(=O)oc5c4)nn3)[C@H]1C2
selectivity ratio [1]: 10
pIC50 (Human orthopneumovirus [2]): 5.20
pIC50 (Human orthopneumovirus [3]): 5.38
selectivity ratio [4]: 6.8
CC50 (HEp-2): 43.4 µM

Cc1cc(=O)oc2cc(OCc3cn(CC4=CC[C@@H]5C[C@H]4C5(C)C)nn3)ccc12
selectivity ratio [1]: 3.3
pIC50 (Human orthopneumovirus [2]): 5.12
pIC50 (Human orthopneumovirus [3]): 5.18
selectivity ratio [4]: 2.9
CC50 (HEp-2): 22.2 µM

CC(C)=CCCC(C)=CCn1cc(COc2ccc3c4c(c(=O)oc3c2)CCC4)nn1
selectivity ratio [1]: 3.3
pIC50 (Human orthopneumovirus [2]): 5.19
IC50 (Human orthopneumovirus [2]): 6.46 µM
pIC50 (Human orthopneumovirus [3]): 5.24
IC50 (Human orthopneumovirus [3]): 5.75 µM
selectivity ratio [4]: 2.9
CC50 (HEp-2): 19.1 µM

CC1(C)[C@H]2CC=C(COc3ccc4c5c(c(=O)oc4c3)CCC5)[C@@H]1C2
selectivity ratio [1]: < 1
pEC50 (Human orthopneumovirus [2]): < 4.89
pIC50 (Human orthopneumovirus [3]): < 4.89
selectivity ratio [4]: 0.9
CC50 (HEp-2): 13.4 µM

CC(C)=CCCC(C)=CCn1cc(COc2ccc3c4c(c(=O)oc3c2)CCCC4)nn1
selectivity ratio [1]: 605
pIC50 (Human orthopneumovirus [2]): 5.92
IC50 (Human orthopneumovirus [2]): 1.2 µM
pIC50 (Human orthopneumovirus [3]): 6.34
IC50 (Human orthopneumovirus [3]): 0.457 µM
selectivity ratio [4]: 233
Activity (Human orthopneumovirus [5]): inactive
CC50 (HEp-2): 279 µM

CC1(C)[C@H]2CC=C(Cn3cc(COc4ccc5c6c(c(=O)oc5c4)CCCC6)nn3)[C@@H]1C2
selectivity ratio [1]: 50
pIC50 (Human orthopneumovirus [2]): 5.89
pIC50 (Human orthopneumovirus [3]): 6.22
selectivity ratio [4]: 23.3
Activity (Human orthopneumovirus [5]): Weak_effect
Activity (Human orthopneumovirus [6]): Weak_effect
CC50 (HEp-2): 30.1 µM

CC(C)c1ccc(Cn2cc(COc3ccc4c5c(c(=O)oc4c3)CCC5)nn2)cc1
selectivity ratio [1]: 1.8
pIC50 (Human orthopneumovirus [2]): 4.59
pIC50 (Human orthopneumovirus [3]): 4.66
selectivity ratio [4]: 1.5
CC50 (HEp-2): 38.5 µM
